Assay results as given in patent publication US10526338B2, “Functionalized pentanoic acids for use influenza viral infections” (Janssen Sciences Ireland UC, priority 2016, dated 2020).
Read-outs that look alike come from different tables or passages of the source.

Test system: influenza virus A/Taiwan/1/86 (H1N1)
Assay: organism not typed
Type: cell-based
Settings: 72 h, MDCK cells infected by influenza A/Taiwan/1/86 (H1N1), three days post-virus exposure, ATP levels
[1] = read-out: FLU-AVE-MDCK-ATP-TW_EC50
[2] = read-out: FLU-AVE-MDCK-ATP-TW_pEC50 (converted)

| Compound | EC50 [1] | EC50 [2] |
| --- | --- | --- |
| CC(C)(c1cccs1)C(CC(=O)O)Nc1nc(-c2c[nH]c3ncc(Cl)cc23)c(C#N)cc1F (stereo not drawn) | 0.57 nM | 0.631 nM |
| CC(C)(c1cccs1)C(CC(=O)O)Nc1nc(-c2c[nH]c3ncc(Cl)cc23)ncc1F (stereo not drawn) | 2.54 nM | 2.51 nM |
| CC(C)(c1nccs1)C(CC(=O)O)Nc1nc(-c2c[nH]c3ncc(Cl)cc23)c(C#N)cc1F (stereo not drawn) | 0.267 nM | 0.251 nM |
| Cn1ccc(C(C)(C)C(CC(=O)O)Nc2nc(-c3c[nH]c4ncc(Cl)cc34)c(C#N)cc2F)n1 (stereo not drawn) | 2.56 nM | 2.51 nM |
| CC1(C(CC(=O)O)Nc2nc(-c3c[nH]c4ncc(Cl)cc34)ncc2F)COC1 (stereo not drawn) | 982 nM | 1000 nM |
| C=CCC(C)(C)C(CC(=O)O)Nc1nc(-c2c[nH]c3ncc(Cl)cc23)c(C#N)cc1F (stereo not drawn) | 1 nM | 1 nM |
| CC(C)(c1ccccn1)C(CC(=O)O)Nc1nc(-c2c[nH]c3ncc(Cl)cc23)c(C#N)cc1F (stereo not drawn) | 0.47 nM | – |
| CC(C)(c1ccccn1)C(CC(=O)O)Nc1nc(-c2c[nH]c3ncncc23)ncc1F (stereo not drawn) | 1890 nM | – |
| CC(C)(c1ccccn1)[C@H](CC(=O)O)Nc1nc(-c2c[nH]c3ncc(Cl)cc23)c(C#N)cc1F (single isomer, unassigned) | 0.075 nM | 0.00631 nM |
| CC(C)(c1ccccn1)[C@@H](CC(=O)O)Nc1nc(-c2c[nH]c3ncc(Cl)cc23)c(C#N)cc1F (single isomer, unassigned) | 5.4 nM | 5.01 nM |
